This is an account of results in DBAASP.

Holding throughout (assay): ≥ marks a high value that may be exact or a test limit, other limits are often not marked, values filed in µg/mL are converted to µM
The test system of experiment [1] is Candida albicans CCARM 14001.
For experiment [2], the system named is Pseudomonas aeruginosa KCTC 1637.
The test system of experiment [3] is Candida albicans CCARM 14007.
Experiment [4] has as its system Escherichia coli CCARM 1238.
Experiment [5] deals with Candida albicans KCTC 7270.
Experiment [6] relates to Staphylococcus aureus CCARM 3126.
Experiment [7] concerns Listeria monocytogenes KCTC 3710.
Experiment [8] relates to Salmonella typhimurium CCARM 8013.
For experiment [9], the system named is Staphylococcus aureus CCARM 3114.
Experiment [10] deals with Staphylococcus aureus CCARM 3090.
In experiment [11] the test system is Escherichia coli CCARM 1229.
Experiment [12] concerns Staphylococcus aureus CCARM 3108.
In experiment [13] the test system is Bacillus subtilis KCTC 1918.
Experiment [14] deals with Salmonella typhimurium CCARM 8009.
The subject of experiment [15] is Salmonella typhimurium CCARM 8007.
Experiment [16] concerns Staphylococcus aureus CCARM 3089.
The test system of experiment [17] is Staphylococcus aureus KCTC 1621.
In experiment [18] the test system is Escherichia coli KCTC 1682.
For experiment [19], the system named is Salmonella typhimurium KCTC 1926.
For experiment [20], the system named is Saccharomyces cerevisiae CGMCC 2.1619.
The test system of experiment [21] is Pseudomonas aeruginosa CMCC 10104.
The subject of experiment [22] is Enterobacter cloacae CGMCC 1.58.
Experiment [23] concerns Penicillium sp. ATCC 30106.
The subject of experiment [24] is Beauveria bassiana CGMCC 3.3576.
The subject of experiment [25] is Klebsiella aerogenes CGMCC 1.2021.
The test system of experiment [26] is Alcaligenes faecalis CGMCC 1.924.
Experiment [27] relates to Escherichia coli CGMCC 1.1369.
The test system of experiment [28] is Enterococcus faecalis CGMCC 1.100.
The test system of experiment [29] is Aspergillus flavus CGMCC 3.6433.
Experiment [30] deals with Bacillus subtilis CGMCC 1.88.
Experiment [31] relates to Corynebacterium glutamicum CGMCC 1.818.
Experiment [32] concerns Micrococcus luteus AB206228.
Experiment [33] has as its system Bacillus thuringiensis serovar israelensis H14.
For experiment [34], the system named is Providencia rettgeri CMCC 49256.
Experiment [35] deals with Bacillus cereus CMCC 1.126.
The test system of experiment [36] is Acetobacterium wieringae CGMCC 1.2033.
For experiment [37], the system named is Tetragenococcus halophilus CGMCC 1.2492.
The test system of experiment [38] is Candida albicans CMCC 98001.
The subject of experiment [39] is Salmonella typhimurium CGMCC 1.1174.
Experiment [40] relates to Proteus vulgaris CGMCC 1.1651.
For experiment [41], the system named is Staphylococcus epidermidis RP62A.
The test system of experiment [42] is Stenotrophomonas maltophilia B32/4.
Experiment [43] has as its system Candida albicans ATCC 90028.
Experiment [44] relates to Acinetobacter baumannii NM8.
Experiment [45] relates to Staphylococcus epidermidis RP62A/1.
Experiment [46] concerns Escherichia coli ATCC 25726.
Experiment [47] relates to Pseudomonas aeruginosa ATCC 27853.
Experiment [48] has as its system Klebsiella pneumoniae ATCC 700603.
Experiment [49] has as its system Staphylococcus aureus ATCC 25923.

In brackets after ≈: the same amount, converted by molar mass. A value given as a limit tells only on which side of the number the result lay.

Usually MIC stands for the smallest concentration in the dilution series that meets the test's criterion for growth inhibition. Read a low MIC as inhibition by little substance. As for `NCCCC[C@H](NC(=O)[C@H](Cc1c[nH]c2ccccc12)NC(=O)[C@@H](N)CCCCN)C(=O)N[C@@H](Cc1c[nH]c2ccccc12)C(N)=O` [KWKW], the MIC in experiment [1] was ≥ 128 µM; in experiment [2], ≥ 200 µM; in experiment [3], ≥ 128 µM; in experiment [4], ≥ 200 µM; in [5] it was ≥ 128 µM; in [6], ≥ 200 µM. The MIC in [7], in experiment [8], in experiment [9], in experiment [10], in experiment [11] and in [12] was ≥ 200 µM in each case. Also, the MIC in [13] was ≥ 200 µM; in experiment [14], ≥ 200 µM; in experiment [15], ≥ 309 µM; in [16] it was ≥ 200 µM; in [17], ≥ 200 µM; in experiment [18], ≥ 200 µM. In addition, the MIC in [19] was ≥ 200 µM.

Turning to `CC[C@H](C)[C@H](NC(=O)[C@H](Cc1ccccc1)NC(=O)[C@H](CCCCN)NC(=O)[C@H](C)NC(=O)[C@@H](NC(=O)[C@H](CO)NC(=O)[C@H](CCCCN)NC(=O)[C@H](CCSC)NC(=O)[C@H](C)NC(=O)[C@H](CCCCN)NC(=O)[C@H](Cc1ccccc1)NC(=O)[C@H](Cc1c[nH]c2ccccc12)NC(=O)CNC(=O)[C@H](CCCCN)NC(=O)[C@@H](N)CCCN=C(N)N)[C@@H](C)CC)C(=O)N[C@@H](C)C(=O)N[C@@H](CCCCN)C(=O)N[C@@H](CCC(=O)O)C(=O)N[C@@H](CCCCN)C(=O)N[C@@H](CC(C)C)C(=O)N[C@@H](CCCCN)C(=O)N[C@@H](CCC(=O)O)C(=O)N[C@@H](Cc1cnc[nH]1)C(=O)N[C@@H](CC(C)C)C(=O)O` [RKGWFKAMKSIAKFIAKEKLKEHL], the MIC is ≥ 50 µM in [20]; 6.2 µM (≈ 17.9 µg/mL) in [21]; ≥ 50 µM in [22]; 3.1 µM (≈ 8.95 µg/mL) in experiment [23]; 6.2 µM (≈ 17.9 µg/mL) in experiment [24]; 12.5 µM (≈ 36.1 µg/mL) in [25]. The MIC in experiment [26] turned out to be 3.1 µM (≈ 8.95 µg/mL); in experiment [27] it was 25 µM (≈ 72.2 µg/mL); in experiment [28] it was 25 µM (≈ 72.2 µg/mL); in experiment [29], 3.1 µM (≈ 8.95 µg/mL); in experiment [30] it was 12.5 µM (≈ 36.1 µg/mL); in experiment [31], 3.1 µM (≈ 8.95 µg/mL). Also, the MIC in experiment [32] was determined as 3.1 µM (≈ 8.95 µg/mL); in [33], 12.5 µM (≈ 36.1 µg/mL); in [34], 6.2 µM (≈ 17.9 µg/mL); in [35] it was 6.2 µM (≈ 17.9 µg/mL); in [36] it was 3.1 µM (≈ 8.95 µg/mL); in [37], 3.1 µM (≈ 8.95 µg/mL). For the same compound, the MIC in experiment [38] is ≥ 50 µM; in experiment [39], 12.5 µM (≈ 36.1 µg/mL); in experiment [40], 6.2 µM (≈ 17.9 µg/mL).

For the compound `CC[C@H](C)[C@H](N)C(=O)N[C@@H](CC(C)C)C(=O)N[C@@H](CCCCN)C(=O)N[C@@H](CCCCN)C(=O)N[C@@H](CC(C)C)C(=O)N[C@@H](CC(C)C)C(=O)N[C@@H](CO)C(=O)N[C@H](C(=O)N[C@@H](C)C(=O)N[C@@H](C)C(=O)NCC(=O)N[C@@H](CC(C)C)C(=O)N[C@@H](CC(C)C)C(=O)N[C@@H](CO)C(=O)N[C@@H](CC(N)=O)C(=O)N[C@@H](CC(C)C)C(N)=O)[C@@H](C)O` [ILKKLLSTAAGLLSNL], the MIC in experiment [41] is ≥ 32 µM; in [42], ≥ 32 µM; in experiment [43] it was ≥ 32 µM; in experiment [44] it was 16 µM (≈ 26.5 µg/mL); in experiment [45] it was 16 µM (≈ 26.5 µg/mL); in experiment [46], ≥ 32 µM. Also, the values for the MIC in experiment [47], in experiment [48] and in experiment [49] were 128 µM (≈ 212 µg/mL), 128 µM (≈ 212 µg/mL) and 64 µM (≈ 106 µg/mL), respectively.
